From ChEMBL document CHEMBL3132769, “Fragment growing to retain or alter the selectivity of anchored kinase hinge-binding fragments” (Medchemcomm, 2014)

Columns and labels:
[1] = target: T1, Serine/threonine-protein kinase D3 (Homo sapiens) (UniProt O94806); assay: Inhibition of human full length PKD3 expressed in baculovirus assessed as substrate phosphorylation using fluorescence-labelled peptides as substrate at 9 uM after 90 mins by microfluidic peptide phosphorylation assay
T1 sequence (whole entry): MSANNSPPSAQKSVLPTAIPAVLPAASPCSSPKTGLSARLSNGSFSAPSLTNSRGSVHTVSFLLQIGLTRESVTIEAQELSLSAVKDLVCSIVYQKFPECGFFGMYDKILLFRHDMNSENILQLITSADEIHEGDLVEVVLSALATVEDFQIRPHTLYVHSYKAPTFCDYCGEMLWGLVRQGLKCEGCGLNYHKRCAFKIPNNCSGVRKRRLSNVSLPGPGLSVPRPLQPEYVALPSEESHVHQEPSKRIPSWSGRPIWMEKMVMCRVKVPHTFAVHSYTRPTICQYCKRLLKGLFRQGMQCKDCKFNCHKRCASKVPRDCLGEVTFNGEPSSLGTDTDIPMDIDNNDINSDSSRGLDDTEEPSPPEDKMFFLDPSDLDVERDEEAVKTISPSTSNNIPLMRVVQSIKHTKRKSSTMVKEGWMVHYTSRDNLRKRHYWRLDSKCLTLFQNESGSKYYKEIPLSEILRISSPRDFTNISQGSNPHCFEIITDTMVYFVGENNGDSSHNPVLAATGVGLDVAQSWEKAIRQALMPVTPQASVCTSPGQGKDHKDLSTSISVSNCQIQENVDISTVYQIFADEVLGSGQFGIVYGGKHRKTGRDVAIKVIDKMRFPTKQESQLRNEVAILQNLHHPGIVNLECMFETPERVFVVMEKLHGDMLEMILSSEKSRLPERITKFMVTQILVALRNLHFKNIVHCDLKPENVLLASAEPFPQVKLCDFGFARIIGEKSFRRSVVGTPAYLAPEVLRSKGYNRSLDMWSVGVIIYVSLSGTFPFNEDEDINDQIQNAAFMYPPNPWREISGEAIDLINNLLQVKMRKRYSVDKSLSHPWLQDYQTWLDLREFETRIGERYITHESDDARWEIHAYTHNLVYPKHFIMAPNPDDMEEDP

[2] = target: Protein kinase C eta type (Homo sapiens) (UniProt P24723); assay: Inhibition of human truncated PKC eta expressed in baculovirus assessed as substrate phosphorylation using fluorescence-labelled peptides as substrate at 95 uM after 90 mins by microfluidic peptide phosphorylation assay
[3] = target: T2, Interleukin-1 receptor-associated kinase 4 (Homo sapiens) (UniProt Q9NWZ3); assay: Inhibition of human IRAK4 catalytic domain expressed in baculovirus assessed as substrate phosphorylation using fluorescence-labelled peptides as substrate at […] after 90 mins by microfluidic peptide phosphorylation assay
T2 sequence (whole entry): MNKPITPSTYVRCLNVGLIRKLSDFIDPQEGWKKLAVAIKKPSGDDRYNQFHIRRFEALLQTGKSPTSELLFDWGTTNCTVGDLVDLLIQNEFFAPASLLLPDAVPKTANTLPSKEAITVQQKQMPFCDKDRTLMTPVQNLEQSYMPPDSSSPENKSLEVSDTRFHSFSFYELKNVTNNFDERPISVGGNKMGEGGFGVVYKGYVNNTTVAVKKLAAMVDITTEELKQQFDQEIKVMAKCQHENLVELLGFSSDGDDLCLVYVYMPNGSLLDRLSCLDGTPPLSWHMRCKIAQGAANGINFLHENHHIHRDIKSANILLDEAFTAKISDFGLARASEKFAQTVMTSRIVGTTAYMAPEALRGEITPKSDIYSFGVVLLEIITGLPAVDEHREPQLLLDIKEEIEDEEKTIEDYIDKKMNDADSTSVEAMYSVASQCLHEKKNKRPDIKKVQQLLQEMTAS

[4] = target: T3, Serine/threonine-protein kinase Sgk3 (Homo sapiens) (UniProt Q96BR1); assay: Inhibition of human full length SGK3 expressed in baculovirus assessed as substrate phosphorylation using fluorescence-labelled peptides as substrate at 420 uM after 90 mins by microfluidic peptide phosphorylation assay
T3 sequence (whole entry): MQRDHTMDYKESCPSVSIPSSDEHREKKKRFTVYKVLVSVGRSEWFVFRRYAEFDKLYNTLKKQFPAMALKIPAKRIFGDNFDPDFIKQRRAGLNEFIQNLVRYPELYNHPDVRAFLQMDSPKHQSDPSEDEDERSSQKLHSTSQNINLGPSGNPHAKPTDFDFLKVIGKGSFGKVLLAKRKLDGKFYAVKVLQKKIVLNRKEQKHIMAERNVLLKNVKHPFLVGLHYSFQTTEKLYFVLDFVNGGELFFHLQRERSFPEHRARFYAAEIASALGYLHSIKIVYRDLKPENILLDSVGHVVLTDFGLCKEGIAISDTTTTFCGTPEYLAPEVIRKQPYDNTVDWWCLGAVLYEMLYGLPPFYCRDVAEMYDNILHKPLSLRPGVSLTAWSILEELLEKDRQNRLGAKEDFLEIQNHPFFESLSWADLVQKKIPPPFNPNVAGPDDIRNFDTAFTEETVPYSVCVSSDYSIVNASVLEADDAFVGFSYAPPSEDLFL

[5] = target: T1, Serine/threonine-protein kinase D3 (Homo sapiens); assay: Inhibition of human full length PKD3 expressed in baculovirus assessed as substrate phosphorylation using fluorescence-labelled peptides as substrate at 70 uM after 90 mins by microfluidic peptide phosphorylation assay
[6] = target: Serine/threonine-protein kinase Chk2 (Homo sapiens) (UniProt O96017); assay: Inhibition of human full length CHK2 expressed in baculovirus assessed as substrate phosphorylation using fluorescence-labelled peptides as substrate at 70 uM after 90 mins by microfluidic peptide phosphorylation assay
[7] = target: Ribosomal protein S6 kinase alpha-4 (Homo sapiens) (UniProt O75676); assay: Inhibition of human full length MSK2 expressed in baculovirus assessed as substrate phosphorylation using fluorescence-labelled peptides as substrate at 70 uM after 90 mins by microfluidic peptide phosphorylation assay
[8] = target: Rho-associated protein kinase 2 (Homo sapiens) (UniProt O75116); assay: Inhibition of human ROCK2 catalytic domain expressed in baculovirus assessed as substrate phosphorylation using fluorescence-labelled peptides as substrate at 2 uM after 90 mins by microfluidic peptide phosphorylation assay
[9] = target: Tyrosine-protein kinase Lck (Homo sapiens) (UniProt P06239); assay: Inhibition of human full length LCK expressed in baculovirus assessed as substrate phosphorylation using fluorescence-labelled peptides as substrate at 8 uM after 90 mins by microfluidic peptide phosphorylation assay
Chain of Tyrosine-protein kinase Lck (Homo sapiens) (P06239 2-509 limits assumed): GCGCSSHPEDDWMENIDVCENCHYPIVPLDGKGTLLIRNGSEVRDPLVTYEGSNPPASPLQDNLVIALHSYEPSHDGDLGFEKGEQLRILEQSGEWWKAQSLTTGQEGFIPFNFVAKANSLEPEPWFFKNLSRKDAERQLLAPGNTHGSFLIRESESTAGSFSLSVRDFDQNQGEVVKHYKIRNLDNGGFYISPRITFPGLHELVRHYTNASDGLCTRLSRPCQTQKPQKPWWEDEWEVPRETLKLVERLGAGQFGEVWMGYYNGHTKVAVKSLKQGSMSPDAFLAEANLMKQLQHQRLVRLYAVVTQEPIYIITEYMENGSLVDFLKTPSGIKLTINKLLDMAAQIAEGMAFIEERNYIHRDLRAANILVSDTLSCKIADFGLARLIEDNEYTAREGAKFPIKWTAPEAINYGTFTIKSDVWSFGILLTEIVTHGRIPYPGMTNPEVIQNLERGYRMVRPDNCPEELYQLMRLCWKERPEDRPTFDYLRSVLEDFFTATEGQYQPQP

Chain of Ribosomal protein S6 kinase alpha-4 (Homo sapiens) (O75676 whole entry, looked up, the tested form may be a part): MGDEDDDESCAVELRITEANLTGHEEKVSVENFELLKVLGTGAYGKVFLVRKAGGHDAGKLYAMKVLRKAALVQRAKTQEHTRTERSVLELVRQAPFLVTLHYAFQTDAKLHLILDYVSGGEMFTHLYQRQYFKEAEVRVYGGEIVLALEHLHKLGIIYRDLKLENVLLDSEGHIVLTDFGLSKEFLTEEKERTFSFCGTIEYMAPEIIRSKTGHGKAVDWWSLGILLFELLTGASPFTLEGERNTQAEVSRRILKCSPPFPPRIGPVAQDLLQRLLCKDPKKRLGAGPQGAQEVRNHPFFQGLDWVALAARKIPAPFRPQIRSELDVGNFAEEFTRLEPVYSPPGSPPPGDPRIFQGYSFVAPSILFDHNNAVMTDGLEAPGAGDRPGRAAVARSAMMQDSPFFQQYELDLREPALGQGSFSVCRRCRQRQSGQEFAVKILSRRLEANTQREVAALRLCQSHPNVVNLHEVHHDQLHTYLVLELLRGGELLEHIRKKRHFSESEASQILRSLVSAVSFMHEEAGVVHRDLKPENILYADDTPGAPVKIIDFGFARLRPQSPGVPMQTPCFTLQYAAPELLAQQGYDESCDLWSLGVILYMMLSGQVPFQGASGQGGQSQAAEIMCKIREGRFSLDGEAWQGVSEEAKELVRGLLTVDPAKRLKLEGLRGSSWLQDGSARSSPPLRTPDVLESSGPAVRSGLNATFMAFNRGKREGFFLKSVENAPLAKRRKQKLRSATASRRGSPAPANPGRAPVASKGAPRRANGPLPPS
Chain of Serine/threonine-protein kinase Chk2 (Homo sapiens) (O96017 whole entry): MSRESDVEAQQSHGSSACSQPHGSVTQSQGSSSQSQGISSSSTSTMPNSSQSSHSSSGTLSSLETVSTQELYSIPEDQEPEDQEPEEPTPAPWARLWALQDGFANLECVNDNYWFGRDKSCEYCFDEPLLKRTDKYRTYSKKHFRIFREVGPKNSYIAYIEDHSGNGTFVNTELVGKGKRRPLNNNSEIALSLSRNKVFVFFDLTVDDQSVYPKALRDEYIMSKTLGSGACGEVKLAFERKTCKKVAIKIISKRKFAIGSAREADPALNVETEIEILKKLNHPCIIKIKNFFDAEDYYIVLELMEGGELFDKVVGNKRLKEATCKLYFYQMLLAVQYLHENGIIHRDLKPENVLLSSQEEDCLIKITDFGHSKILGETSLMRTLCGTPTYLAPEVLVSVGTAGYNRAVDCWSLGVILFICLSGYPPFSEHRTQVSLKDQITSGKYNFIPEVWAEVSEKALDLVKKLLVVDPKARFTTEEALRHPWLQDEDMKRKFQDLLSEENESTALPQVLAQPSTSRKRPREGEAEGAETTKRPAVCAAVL
Chain of Protein kinase C eta type (Homo sapiens) (P24723 whole entry, the tested form may be a part): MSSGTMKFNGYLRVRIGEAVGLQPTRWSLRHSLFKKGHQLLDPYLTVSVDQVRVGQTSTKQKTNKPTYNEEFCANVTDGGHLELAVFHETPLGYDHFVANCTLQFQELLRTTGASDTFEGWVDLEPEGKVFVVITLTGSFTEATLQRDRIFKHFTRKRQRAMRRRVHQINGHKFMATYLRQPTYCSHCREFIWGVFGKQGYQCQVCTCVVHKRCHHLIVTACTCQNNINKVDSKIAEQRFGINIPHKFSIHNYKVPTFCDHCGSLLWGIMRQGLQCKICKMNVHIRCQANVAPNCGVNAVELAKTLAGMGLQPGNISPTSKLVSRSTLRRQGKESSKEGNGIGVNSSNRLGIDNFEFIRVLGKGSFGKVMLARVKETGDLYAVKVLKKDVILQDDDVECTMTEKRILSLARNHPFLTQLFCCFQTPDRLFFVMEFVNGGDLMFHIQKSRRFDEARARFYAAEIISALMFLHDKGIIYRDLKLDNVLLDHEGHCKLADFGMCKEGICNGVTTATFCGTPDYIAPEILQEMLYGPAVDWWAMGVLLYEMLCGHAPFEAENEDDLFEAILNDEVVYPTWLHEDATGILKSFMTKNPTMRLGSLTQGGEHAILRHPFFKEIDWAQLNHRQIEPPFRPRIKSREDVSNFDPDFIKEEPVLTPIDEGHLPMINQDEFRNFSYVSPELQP
Chain of Rho-associated protein kinase 2 (Homo sapiens) (O75116 whole entry, looked up, the tested form may be a part): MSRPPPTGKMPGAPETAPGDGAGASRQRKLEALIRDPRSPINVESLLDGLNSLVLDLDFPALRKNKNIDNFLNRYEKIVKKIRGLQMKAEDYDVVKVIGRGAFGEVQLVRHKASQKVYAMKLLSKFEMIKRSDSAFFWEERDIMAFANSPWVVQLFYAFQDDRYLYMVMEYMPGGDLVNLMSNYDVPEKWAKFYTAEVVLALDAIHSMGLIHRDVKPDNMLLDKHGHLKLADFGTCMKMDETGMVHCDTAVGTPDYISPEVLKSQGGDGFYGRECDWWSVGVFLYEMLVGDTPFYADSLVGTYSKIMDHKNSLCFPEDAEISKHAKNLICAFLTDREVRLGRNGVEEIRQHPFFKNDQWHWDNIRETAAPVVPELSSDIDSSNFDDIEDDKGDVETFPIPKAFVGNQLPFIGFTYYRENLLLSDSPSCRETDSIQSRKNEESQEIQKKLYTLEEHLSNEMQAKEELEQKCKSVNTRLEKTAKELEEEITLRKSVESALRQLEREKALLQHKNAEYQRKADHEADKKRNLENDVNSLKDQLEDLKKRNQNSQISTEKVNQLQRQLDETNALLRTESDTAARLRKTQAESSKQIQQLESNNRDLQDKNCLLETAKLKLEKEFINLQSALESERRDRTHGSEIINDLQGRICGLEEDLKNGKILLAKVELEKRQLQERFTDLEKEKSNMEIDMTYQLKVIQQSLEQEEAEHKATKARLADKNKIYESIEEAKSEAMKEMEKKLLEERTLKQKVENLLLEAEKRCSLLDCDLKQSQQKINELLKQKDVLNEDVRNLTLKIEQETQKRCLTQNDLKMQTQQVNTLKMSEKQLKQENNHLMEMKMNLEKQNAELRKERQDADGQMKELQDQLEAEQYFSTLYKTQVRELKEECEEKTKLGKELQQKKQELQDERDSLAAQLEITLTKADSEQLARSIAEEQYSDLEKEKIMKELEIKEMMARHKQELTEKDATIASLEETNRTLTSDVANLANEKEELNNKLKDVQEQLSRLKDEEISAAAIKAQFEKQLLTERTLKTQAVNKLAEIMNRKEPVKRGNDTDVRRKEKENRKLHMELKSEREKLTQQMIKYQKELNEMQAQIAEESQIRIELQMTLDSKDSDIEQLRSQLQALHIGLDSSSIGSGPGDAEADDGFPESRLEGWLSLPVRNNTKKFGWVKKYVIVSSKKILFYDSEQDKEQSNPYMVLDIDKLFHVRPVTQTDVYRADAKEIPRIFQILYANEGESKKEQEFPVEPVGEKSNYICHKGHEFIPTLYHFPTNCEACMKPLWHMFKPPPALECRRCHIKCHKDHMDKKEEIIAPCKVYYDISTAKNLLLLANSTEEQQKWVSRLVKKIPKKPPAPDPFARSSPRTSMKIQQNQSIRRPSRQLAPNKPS

Q: For NCC1CN(c2ncnc3[nH]c4cnccc4c23)CCO1 (centres undefined), which inhibition [1] is on record?
A: 80%

Q: For NCCc1ccc(-c2ncnc3[nH]cnc23)cc1, which inhibition [2] is on record?
A: 86.5%

Q: With COC(=O)c1cnc(Nc2cnc(C#N)cn2)cc1NCC1CCNCC1 as the compound, how does the inhibition [3] read?
A: 5.5%

Q: How did the inhibition [4] turn out when c1nc(N2CCOCC2)c2nc[nH]c2n1 was run?
A: 63%

Q: For CNCc1ccc(-c2ncnc3[nH]cnc23)cc1, which inhibition [5] is on record?
A: 72.5%

Q: What about the inhibition [6] of the same compound?
A: 57.5%

Q: What about the inhibition [7] of the same compound?
A: 68%

Q: Which inhibition [8] does the source give for NC1CCN(c2ncnc3[nH]ccc23)CC1 here?
A: 44%

Q: For NCC1CCN(c2ncnc3[nH]ccc23)CC1, which inhibition [9] is on record?
A: 48.5%
